Experimental data reported in publication PMC3770139 (Molecular cell, 2013).

Target: T1, Gpa1 (yeast Gα) (Saccharomyces cerevisiae, UniProt P08539)
T1 sequence (P08539 2-472): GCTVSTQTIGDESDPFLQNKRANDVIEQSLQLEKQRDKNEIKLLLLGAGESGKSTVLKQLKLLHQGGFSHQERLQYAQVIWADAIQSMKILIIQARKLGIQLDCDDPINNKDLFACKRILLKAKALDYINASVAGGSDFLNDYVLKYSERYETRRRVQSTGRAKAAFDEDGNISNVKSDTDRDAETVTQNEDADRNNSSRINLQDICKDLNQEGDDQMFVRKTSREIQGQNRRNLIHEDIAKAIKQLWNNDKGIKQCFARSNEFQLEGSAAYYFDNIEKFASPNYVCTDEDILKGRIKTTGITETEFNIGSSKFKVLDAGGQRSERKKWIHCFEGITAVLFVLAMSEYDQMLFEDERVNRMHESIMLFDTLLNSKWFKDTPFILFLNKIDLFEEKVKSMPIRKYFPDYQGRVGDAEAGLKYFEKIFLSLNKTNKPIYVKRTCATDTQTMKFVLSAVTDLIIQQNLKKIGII
Experiment: steady-state hydrolysis of gamma-32P GTP, charcoal assay
Format: biochemical
Details: turnover only; 5 µM GTP, 1 mM MgCl2, 37 °C, pH 6.0, 7.0, 8.0

Nc1nc2c(ncn2[C@@H]2O[C@H](COP(=O)(O)OP(=O)(O)OP(=O)(O)O)[C@@H](O)[C@H]2O)c(=O)[nH]1 [GTP]
steady-state hydrolysis of gamma-32P GTP, charcoal assay: Steady-state GTP hydrolysis by yeast Gpa1 and mammalian Gαi
